14 compounds from ChEMBL document CHEMBL1138045 (J Med Chem, 2006) can be followed below.

The target in data set [1] is Mitogen-activated protein kinase 9 (Homo sapiens, UniProt P45984). Briefly: Inhibition of JNK2.
In data set [2] the target is c-Jun N-terminal kinase, JNK (Homo sapiens, UniProt P45983+P53779+P45984). Kind of data set: Inhibition of cJun phosphorylation in HepG2 cells. Type of data set: functional, cell-based.
Data set [3] concerns the target Mitogen-activated protein kinase 8 (Homo sapiens, UniProt P45983). Kind of data set: Inhibition of JNK1.
Data set [4] can be described thus: AUC in rat at 5 mg/kg, po. The class given is ADME, organism-based. The arrangement: dose 5 mg/kg, route oral. The following applies: plasma.
A short description of data set [5]: Half life in rat microsomes. The class given is ADME, Microsome. Particulars: liver microsomes. For orientation: Liver microsomes are a subcellular fraction often used to study metabolism.
The nature of data set [6]: Oral bioavailability in rat at 5 mg/kg, po. The following applies: in vivo. The class given is ADME, organism-based.
A short description of data set [7]: Cmax in rat at 5 mg/kg, po. Type of data set: ADME, organism-based. Also on record: dose 5 mg/kg, route oral. Particulars: in vivo.
Data set [8] in a line: Half life in rat at 5 mg/kg, po. Type of data set: ADME, organism-based. The arrangement: dose 5 mg/kg, route oral. Particulars: in vivo.
Data set [9] in a line: Half life in mouse microsomes. Type of data set: ADME, Microsome.
The target of the next data set is Activated CDC42 kinase 1 (Homo sapiens, UniProt Q07912). Kind of data set: Inhibition of CDC42.
Activated CDC42 kinase 1, sequence (Q07912 whole entry): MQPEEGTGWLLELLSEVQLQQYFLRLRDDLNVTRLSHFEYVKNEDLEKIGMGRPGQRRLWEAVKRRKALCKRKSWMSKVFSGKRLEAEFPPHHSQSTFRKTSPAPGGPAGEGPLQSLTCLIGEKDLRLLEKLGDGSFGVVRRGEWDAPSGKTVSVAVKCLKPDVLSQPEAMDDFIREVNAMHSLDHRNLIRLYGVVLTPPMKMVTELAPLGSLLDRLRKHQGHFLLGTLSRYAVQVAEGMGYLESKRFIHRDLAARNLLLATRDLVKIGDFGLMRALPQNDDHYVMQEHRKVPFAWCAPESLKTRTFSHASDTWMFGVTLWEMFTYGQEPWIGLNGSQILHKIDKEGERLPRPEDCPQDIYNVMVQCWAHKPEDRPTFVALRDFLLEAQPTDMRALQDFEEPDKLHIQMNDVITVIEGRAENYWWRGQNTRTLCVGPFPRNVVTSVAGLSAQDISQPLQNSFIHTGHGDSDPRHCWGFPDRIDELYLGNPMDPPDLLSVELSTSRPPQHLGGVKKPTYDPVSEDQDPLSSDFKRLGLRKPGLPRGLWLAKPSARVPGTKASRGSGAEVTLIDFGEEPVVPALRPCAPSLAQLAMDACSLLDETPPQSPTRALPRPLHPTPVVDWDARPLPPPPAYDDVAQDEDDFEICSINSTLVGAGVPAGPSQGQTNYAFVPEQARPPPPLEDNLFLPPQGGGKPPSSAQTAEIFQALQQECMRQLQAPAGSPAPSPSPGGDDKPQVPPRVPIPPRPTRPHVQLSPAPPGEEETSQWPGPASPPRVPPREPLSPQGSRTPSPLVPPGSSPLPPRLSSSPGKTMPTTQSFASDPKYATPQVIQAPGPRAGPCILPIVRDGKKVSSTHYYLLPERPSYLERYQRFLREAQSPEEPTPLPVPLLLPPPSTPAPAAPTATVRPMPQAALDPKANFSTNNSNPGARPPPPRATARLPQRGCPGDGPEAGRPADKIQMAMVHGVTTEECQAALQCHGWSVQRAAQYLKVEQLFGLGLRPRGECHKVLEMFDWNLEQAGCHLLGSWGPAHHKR
Data set [10] can be described thus: Inhibition of IGFR. The arrangement: species or system Homo sapiens.
Data set [11] has as its target T1, Serine/threonine-protein kinase Sgk1 (Homo sapiens, UniProt O00141).
T1 sequence (O00141 whole entry): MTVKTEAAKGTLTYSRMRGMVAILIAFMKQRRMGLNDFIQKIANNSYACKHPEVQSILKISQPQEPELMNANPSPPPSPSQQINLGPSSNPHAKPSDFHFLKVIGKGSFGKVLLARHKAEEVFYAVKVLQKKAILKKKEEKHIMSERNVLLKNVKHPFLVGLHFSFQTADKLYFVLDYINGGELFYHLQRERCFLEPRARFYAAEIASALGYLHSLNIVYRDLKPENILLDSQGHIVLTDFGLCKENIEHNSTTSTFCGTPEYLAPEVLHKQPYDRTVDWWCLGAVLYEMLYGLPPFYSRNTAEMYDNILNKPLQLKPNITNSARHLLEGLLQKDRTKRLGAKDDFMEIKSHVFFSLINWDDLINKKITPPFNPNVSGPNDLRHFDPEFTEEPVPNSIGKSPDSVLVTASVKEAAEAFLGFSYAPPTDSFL
Briefly: Inhibition of SGk.

Data set [12] addresses Mitogen-activated protein kinase 10 (Homo sapiens, UniProt P53779). Briefly: Inhibition of JNK3.
The nature of data set [13]: Inhibition of MAPKAPK. Also on record: species or system Homo sapiens.
Data set [14] concerns the target T2, Calcium/calmodulin-dependent protein kinase type IV (Homo sapiens, UniProt Q16566).
T2 sequence (Q16566 whole entry): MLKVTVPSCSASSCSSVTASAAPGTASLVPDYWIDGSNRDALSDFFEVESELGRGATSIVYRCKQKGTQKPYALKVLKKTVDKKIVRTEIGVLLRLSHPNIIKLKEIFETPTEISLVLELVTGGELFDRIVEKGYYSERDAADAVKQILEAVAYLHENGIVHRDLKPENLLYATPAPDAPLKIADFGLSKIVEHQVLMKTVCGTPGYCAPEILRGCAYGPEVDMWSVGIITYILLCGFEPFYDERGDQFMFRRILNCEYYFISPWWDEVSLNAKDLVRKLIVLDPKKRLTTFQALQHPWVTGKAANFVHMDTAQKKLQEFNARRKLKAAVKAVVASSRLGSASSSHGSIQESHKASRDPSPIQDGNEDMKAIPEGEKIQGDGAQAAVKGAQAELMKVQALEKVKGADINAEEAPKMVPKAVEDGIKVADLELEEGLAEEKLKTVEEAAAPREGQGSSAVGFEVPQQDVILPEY
Kind of data set: Inhibition of CaMK4.

Data set [15] is described as follows: Half life in human microsomes. Type of data set: ADME, Microsome. Particulars: liver microsomes.
For data set [16], the target named is Voltage-gated inwardly rectifying potassium channel KCNH2 (Homo sapiens, UniProt Q12809). Kind of data set: Displacement of [3H]dofetilide from hERG. On the technique in general: Loss of bound radioactivity is the signal in a displacement assay; it reports binding, not function.
Voltage-gated inwardly rectifying potassium channel KCNH2, sequence (Q12809 whole entry): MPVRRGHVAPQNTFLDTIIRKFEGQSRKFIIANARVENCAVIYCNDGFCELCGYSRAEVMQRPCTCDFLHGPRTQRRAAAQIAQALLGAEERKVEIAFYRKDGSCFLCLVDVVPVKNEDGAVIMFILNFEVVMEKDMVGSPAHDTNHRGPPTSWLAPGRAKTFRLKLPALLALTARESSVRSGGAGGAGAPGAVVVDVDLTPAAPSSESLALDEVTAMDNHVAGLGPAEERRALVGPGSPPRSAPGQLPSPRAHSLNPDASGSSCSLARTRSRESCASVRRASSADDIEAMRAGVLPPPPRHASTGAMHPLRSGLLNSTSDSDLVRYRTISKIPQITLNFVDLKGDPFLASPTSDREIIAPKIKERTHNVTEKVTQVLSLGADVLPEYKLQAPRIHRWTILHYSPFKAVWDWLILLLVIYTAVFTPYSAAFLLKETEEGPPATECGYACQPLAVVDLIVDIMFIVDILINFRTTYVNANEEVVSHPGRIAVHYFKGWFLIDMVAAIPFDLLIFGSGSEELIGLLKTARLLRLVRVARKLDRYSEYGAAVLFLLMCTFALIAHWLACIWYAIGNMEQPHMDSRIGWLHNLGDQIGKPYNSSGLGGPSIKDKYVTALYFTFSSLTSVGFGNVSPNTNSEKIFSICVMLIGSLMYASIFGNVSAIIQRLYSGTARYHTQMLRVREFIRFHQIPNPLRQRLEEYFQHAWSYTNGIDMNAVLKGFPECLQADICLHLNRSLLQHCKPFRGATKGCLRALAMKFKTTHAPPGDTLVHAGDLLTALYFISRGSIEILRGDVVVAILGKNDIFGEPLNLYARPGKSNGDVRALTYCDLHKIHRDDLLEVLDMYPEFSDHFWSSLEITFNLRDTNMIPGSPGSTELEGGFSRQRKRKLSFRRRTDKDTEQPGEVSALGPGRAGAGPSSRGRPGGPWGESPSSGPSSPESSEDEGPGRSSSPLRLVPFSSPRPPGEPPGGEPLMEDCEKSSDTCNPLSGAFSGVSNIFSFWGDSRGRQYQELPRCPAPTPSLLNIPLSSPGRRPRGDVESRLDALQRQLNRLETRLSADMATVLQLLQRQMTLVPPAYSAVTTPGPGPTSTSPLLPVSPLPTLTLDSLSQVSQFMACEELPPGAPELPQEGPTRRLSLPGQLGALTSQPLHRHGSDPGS

Mitogen-activated protein kinase 9, sequence (P45984 whole entry): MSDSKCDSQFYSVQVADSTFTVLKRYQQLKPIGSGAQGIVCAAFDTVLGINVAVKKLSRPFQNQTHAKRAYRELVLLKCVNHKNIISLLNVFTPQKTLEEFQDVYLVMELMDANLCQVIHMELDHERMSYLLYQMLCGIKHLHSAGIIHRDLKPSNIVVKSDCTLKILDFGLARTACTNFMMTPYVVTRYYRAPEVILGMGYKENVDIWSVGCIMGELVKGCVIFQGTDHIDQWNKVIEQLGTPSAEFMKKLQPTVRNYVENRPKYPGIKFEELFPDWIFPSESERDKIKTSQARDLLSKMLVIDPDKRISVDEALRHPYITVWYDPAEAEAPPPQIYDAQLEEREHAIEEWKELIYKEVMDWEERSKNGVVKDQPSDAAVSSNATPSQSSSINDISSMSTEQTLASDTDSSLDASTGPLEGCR
Mitogen-activated protein kinase 8, sequence (P45983 whole entry): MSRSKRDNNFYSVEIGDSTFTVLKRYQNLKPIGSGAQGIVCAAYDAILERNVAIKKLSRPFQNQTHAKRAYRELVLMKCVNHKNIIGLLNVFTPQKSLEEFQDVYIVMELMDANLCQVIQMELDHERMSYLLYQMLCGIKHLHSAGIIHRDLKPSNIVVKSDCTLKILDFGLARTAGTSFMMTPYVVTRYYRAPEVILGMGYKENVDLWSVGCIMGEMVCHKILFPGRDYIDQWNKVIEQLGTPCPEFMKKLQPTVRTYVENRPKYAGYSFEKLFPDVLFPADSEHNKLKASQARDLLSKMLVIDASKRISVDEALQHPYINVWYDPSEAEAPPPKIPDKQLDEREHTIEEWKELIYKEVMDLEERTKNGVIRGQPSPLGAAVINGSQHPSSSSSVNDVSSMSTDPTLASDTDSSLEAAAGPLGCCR
Mitogen-activated protein kinase 10, sequence (P53779 whole entry): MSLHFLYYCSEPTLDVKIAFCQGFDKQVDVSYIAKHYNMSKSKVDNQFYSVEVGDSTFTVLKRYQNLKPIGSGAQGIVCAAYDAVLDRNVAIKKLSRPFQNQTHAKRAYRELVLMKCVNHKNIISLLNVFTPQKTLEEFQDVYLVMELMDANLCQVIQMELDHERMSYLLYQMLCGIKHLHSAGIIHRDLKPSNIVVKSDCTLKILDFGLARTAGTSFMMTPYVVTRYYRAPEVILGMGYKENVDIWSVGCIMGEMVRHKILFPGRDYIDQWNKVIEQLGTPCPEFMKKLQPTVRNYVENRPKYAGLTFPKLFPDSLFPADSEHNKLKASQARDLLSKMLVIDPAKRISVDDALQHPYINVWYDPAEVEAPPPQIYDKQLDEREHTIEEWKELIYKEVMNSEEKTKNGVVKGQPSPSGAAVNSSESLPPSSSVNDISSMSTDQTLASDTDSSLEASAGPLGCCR

What is called IC50 is the concentration needed to halve the response being measured. Take `CC(C)Oc1nc(C(=O)NCc2ccc(S(C)(=O)=O)cc2)cc(N)c1Cl`: the IC50 worked out at 68 nM in [1], 0.41 µM in [2] and 75 nM in [3].

`CCOc1nc(NCc2cc(OC)ccc2OC)cc(N)c1C#N` registered an IC50 in [3] above 10000 nM.

`CCOc1nc(C(=O)NCc2ccc(S(C)(=O)=O)cc2)ccc1C#N`: the IC50 is 5.8 µM in data set [2] and 390 nM in data set [3].

For `CCOc1nc(C(=O)NCc2ccccc2)cc(N)c1C#N`, the figures for the IC50 in [1], in data set [2] and in [3] were 190 nM, 1.1 µM and 270 nM, respectively.

`CCOc1nc(C(=O)NCc2cc(OC)ccc2OC)ccc1C#N`: the IC50 in [2] was 2.5 µM; in data set [3], 230 nM.

By AUC is commonly meant the area under the concentration-time curve, a measure of exposure. The half-life is the time needed for the level to fall by half in the phase considered. A lower half-life goes with rapid decline. The Cmax is the highest concentration seen after dosing. In data set [4], `CCOc1nc(C(=O)NCc2ccccc2S(N)(=O)=O)cc(N)c1C#N` came in with an AUC of 4000 ng·h/mL. The half-life in data set [5] is above 60 min; in data set [8] it was 132 min. In addition, in [6], the bioavailability stood at 54.7%. The compound further gave a Cmax in data set [7] of 1320 ng/mL. In addition, in data set [3], the IC50 is 12 nM.

As usually defined, the Ki is a measure of affinity in units of concentration, obtained from inhibition or displacement. In the case of `CCOc1nc(C(=O)NC)cc(N)c1C#N`, the IC50 amounted to 610 nM in data set [1] and 1200 nM in data set [3]. In addition, the Ki in data set [3] is 400 nM.

Turning to `CCOc1nc(C(=O)NCc2cc(OC)ccc2OC)cc(N)c1C#N`, the IC50 in [1] was 120 nM; in data set [2], 0.64 µM; in data set [3], 71 nM.

With `CCOc1nc(C(=O)NCc2cccnc2)cc(N)c1C#N`, the exposure (AUC) in data set [4] is 3800 ng·h/mL. The bioavailability in [6] came to 32.7%. This compound also showed a Cmax in data set [7] of 2920 ng/mL. In addition, the half-life is 5 min in data set [9] and 30 min in data set [8].

Consider `CS(=O)(=O)c1ccc(CNC(=O)c2cc(N)c(C#N)c(Cl)n2)cc1`, for which the IC50 was 4400 nM in data set [1] and 1500 nM in [3].

For the compound `CCOc1nc(C(=O)NCc2ccc(-c3ccc(C(=O)O)cc3)nc2)cc(N)c1C#N`, the IC50 in [1] was 11 nM; in data set [2] it was above 10 µM; in [3], 4 nM.

For the compound `CCOc1nc(C(=O)N(C)Cc2ccc(S(C)(=O)=O)cc2)cc(N)c1C#N`, the IC50 is above 10000 nM in [1], above 10 µM in data set [2] and 6400 nM in data set [3].

In turn, `CCOc1nc(C(=O)NCc2ccc(S(C)(=O)=O)cc2)cc(N)c1Cl` registered an AUC in data set [4] of 15400 ng·h/mL. In addition, the Ki was above 9.5 µM on Activated CDC42 kinase 1; above 1000 nM in data set [10]; above 9.4 µM in data set [11]; above 8.4 µM in [13]; above 8.5 µM in [14]. The half-life in data set [5] is above 60 min; in [8], 306 min. Besides, the bioavailability in data set [6] turned out to be 124%. The compound further gave a Cmax in [7] of 1780 ng/mL. In data set [12], this compound showed an IC50 of 120 nM.

With `CCOc1nc(C(=O)NCc2ccc(S(C)(=O)=O)cc2)cc(N)c1C#N`, in data set [4], the AUC is 6320 ng·h/mL. Also, the half-life in [5] is above 60 min; in [9], above 60 min; in [8], 204 min; in data set [15] it was above 60 min. In [6], the bioavailability amounted to 38.8%. In data set [7], this compound displayed a Cmax of 1020 ng/mL. Also, the half-inhibitory concentration (IC50) in [16] was above 100 µM.
